Reference: PMC5641094, “A peptide antagonist of Prep1-p160 interaction improves ceramide-induced insulin resistance in skeletal muscle cells” (Oncotarget, 2017)

Experiments:
L6 cells = assay: Glycogen content in L6 cells; type: cell-based, rat; settings: for effect on insulin-stimulated glycogen synthesis: insulin 100nM, C2cer 10μM, with or without Prep1(54-72)
Description: Figure 6 Effect of Prep1(54-72) peptide on glycogen content and 2-DG uptake L6 control and Prep1 overexpressing cells were stimulated with Insulin (100nM) and/or C2cer (10μM) and incubated with Prep1(54-72). (A) Glycogen content and (B) 2-DG uptake were measured as described in methods. Bars represent the mean ± SD of three independent experiments. Asterisks denote statistically significant differences (*p<0.05; **p<0.01; ***p<0.001).
Glycogen was isolated from L6 cells homogenized in 0.1% SDS, saturated with Na2SO4 for 30 minutes at 37°C, followed by ethanol (EtOH) precipitation. Glycogen content was determined as previously described. 2-DG uptake by the L6 cells was measured as previously reported.

[1] = system: PGC-1α and GLUT4 protein expression; assay: PGC-1α and GLUT4 protein expression, Western blot; type: cell-based, rat
Description: Figure 5 Effect of Prep1(54-72) peptide on Akt phosphorylation and PGC-1α and GLUT4 protein levels (A-B) L6 control and Prep1 overexpressing cells were stimulated with Insulin (100nM) and/or C2cer (10μM) and incubated with Prep1(54-72). Protein lysates were analyzed by Western blot using antibodies for pAkt, Akt and for the beta-actin, as a loading control. (C) PGC-1α and GLUT4 protein levels were measured by using specific antibodies for these proteins and beta-actin antibody was used as loading control. Blots were detected by ECL and autoradiography. The autoradiographs are representative of four independent experiments. Asterisks denote statistically significant differences (*p<0.05; **p<0.01; ***p<0.001).
Total cell lysates were obtained and separated by SDS-PAGE. Briefly, cells were solubilized with lysis buffer containing 50mM HEPES, 150mM NaCl, 10mM EDTA, 10mM Na4P2O7, 2mM sodium orthovanadate, 50mM NaF, 1mM phenylmethylsulfonyl fluoride, 10μg/ml aprotinin, 10μg/ml leupeptin, pH 7.4, and 1% (v/v) Triton X-100. Lysates were clarified by centrifugation at 12,000g for 20 minutes at 4°C. The protein concentrations in the cell lysates were measured using a Bio-Rad DC (detergent compatible) assay. Immunoprecipitation and Western blot analysis have been performed as previously described.

| Compound | reduction of insulin-stimulated glycogen content (L6 cells; C2cer exposure (abstract)) | effect on insulin-stimulated glycogen synthesis (L6 cells) | decrease of PGC-1α and GLUT4 protein expression ([1]; L6 cells incubated with C2cer 10μM) | effect on decreased PGC-1α and GLUT4 protein expression ([1]; L6 cells with C2cer or Prep1 overexpression, Prep1(54-72)) |
| --- | --- | --- | --- | --- |
| CCCCCCCCCCCCC/C=C/[C@@H](O)[C@H](CO)NC(C)=O [C2cer, D-erythro-Sphingosine, N-Acetyl-, reference compound] | 1.3 fold | negatively modulated | approximately 35% | – |
| Ac-KQAIYRHPLFPLLALLFEK-NH2 [Prep1(54-72)] | – | recovered the insulin response | – | significantly reverted |
